Drawing on a melting point compilation (Tetko et al.; mined from patent text by program, amines drawn as free bases though some values may be those of a salt), this text covers melting point for 60 compounds.

Each structure is given as a SMILES string. Bounds are passed on as bounds.

On to `CO[C@@H]1CN(CC2OCCO2)CC[C@@H]1NC(=O)c1cc(Cl)c(N)c2c1OCC2` (relative stereo), for which the melting point (commonly the temperature, or range, at which the solid turns liquid) is 149 °C.
In the case of `CN1C(=N)C(=O)c2ccccc21` it was 99 to 102 °C.
In the case of `CCCCOCCOc1ccc(-c2ccc3c(c2)C=C(C(=O)Nc2ccc4c(c2)nc(S(=O)Cc2cncn2CCC)n4C)CCN3CC(C)C)cc1` (stereo not given) it was 150 to 151 °C.
Compound `COC[C@]12CCC(=O)C=C1CC[C@@H]1[C@@H]2CC[C@]2(C)[C@@H](C(=O)CO)CC[C@@H]12` showed a melting point of 148 to 149 °C.
Take `CCc1cc2c(s1)-n1c(nnc1CNC(=O)c1cc3ccccc3n1CC(=O)O)CN=C2c1ccccc1Cl`: the melting point lay within 222 to 223 °C.
The compound `Cc1cnc(N2CCc3ccccc3CC2)c([N+](=O)[O-])c1` came in with a melting point of 87 to 88 °C.
Consider `Fc1ccc2c(CCCN(c3ccncc3)c3csc4cccc(Cl)c34)noc2c1`, for which the melting point was in the range of 135 to 136 °C.
In the case of `N#Cc1ccnc(Oc2ccc(CCNc3ncnc4scnc34)cc2)c1` it was 145 to 148 °C.
Under `COC(=O)C(=CNc1ccc(F)cc1)C(=O)C=Cc1ccc(Cl)cc1` stands 166 to 168 °C; under `CCN(C)C(=O)Nc1ccc2c(c1)C(c1ccccc1F)=NCC(=O)N2C`, 165 to 168 °C; under `O=C(CC(=O)C(F)(F)F)c1ccc(OCc2ccccc2)cc1`, 220 to 224 °C.
Under `O=C1c2ccc(Cl)cc2C(=O)N1c1ccc([N+](=O)[O-])cc1Cl` stands 209 to 212 °C.
For the compound `N#Cc1cnn(-c2c(Cl)cc(C(F)(F)F)cc2Cl)c1N1CCC1=O`, the melting point lay in the range of 162 to 164 °C.
In the case of `CC(C)(C)OC(=O)NCC1CN(C(c2ccccc2)c2ccccc2)C1` it was 108 to 110 °C; in that of `CNC(=NCCSCc1[nH]cnc1C)NS(=O)(=O)c1ccccc1`, 156 to 158 °C.
In the case of `CCCP(=O)(CCC)Cc1ccc(NC(=O)C2=Cc3cc(-c4ccc(C)cc4)ccc3OCC2)cc1` it was 219 to 220 °C.
In the case of `CS(=O)(=O)Nc1cccc(Br)n1` it was 90 to 94 °C.
The compound `COc1ccc2c(=O)c(-c3ccc(F)cc3)c(-c3ccc(S(N)(=O)=O)cc3)oc2c1` registered a melting point of 245 °C.
In the case of `OCCNc1nc(NCc2ccccc2)c2ncc(Nc3ncncn3)cc2n1` it was 202 to 203 °C.
Take `CCCCCCCNC(=O)Nc1cccc(-c2ccc(C=C(OC)C(=O)O)cc2OCCCC)c1`: the melting point came to 137 °C.
`CCN1CCCC(NC(=O)c2ccccc2Nc2ccnc3c(C(F)(F)F)cccc23)C1` (stereo not given): the melting point fell in the range of 212 to 213 °C.
In the case of `Cc1cncn1Cc1cc(C(C)(C)O)cc(C(C)(C)C#N)c1` it was 128 to 131 °C; in that of `CCc1cccc(C)c1S(=O)(=O)c1nn(C(=O)N(CC)CC)cc1OC`, 102 to 104 °C; in that of `C[Si](C)(C)C#Cc1ccc2c(c1)NC(=O)CO2`, 142 °C.
For `CS(=O)(=O)c1ccc(-c2cnn(-c3ccccc3[N+](=O)[O-])c(=O)c2-c2ccc(F)cc2)cc1`, the melting point is 236 to 239 °C.
Regarding `O=C(O)Cc1cn(-c2ccccc2)c2ccccc12`, the melting point lay within 131 to 135 °C.
Compound `Cc1cccc(C(=O)n2nc(Nc3cccc(OCC(=O)NCCN4CCOCC4)c3)nc2N)c1` showed a melting point of 145 to 147 °C.
On to `N#CC1(C(O)(Cn2cncn2)c2ccccc2)CC1` (stereo not given), for which the melting point lay in the range of 103 to 105 °C.
`Cc1ccccc1-n1cc(-c2ccccc2)c(CC(=O)O)n1` gave a melting point of 177 °C.
`CC(C)c1ccc(S(=O)(=O)n2c(Cc3ccc(C(=O)O)cc3)cc3cc(Cl)ccc32)cc1` displayed a melting point of 192 °C.
Under `CC(=O)OC(c1ccc(C(F)(F)F)cc1[N+](=O)[O-])c1cnoc1C1CC1` (stereo not given) stands 82 °C.
In turn, `COc1cc(OC)nc(C(O)(C(=O)NS(C)(=O)=O)c2ccccc2)n1` (stereo not given) gave a melting point of 94 to 96 °C.
In the case of `COc1ccc([N+](=O)[O-])c(NC(C)=O)c1` it was 129 °C; in that of `O=C(NCc1ccc(Cl)cc1)c1cnc2c(F)cc(C#CCCO)cc2c1O`, 253 to 255 °C; in that of `CC(C)c1c(C(=O)O)cnn1-c1ccc(Cl)cc1`, 211 to 212 °C.
Under `Cc1ccc(C(=O)Nc2ccc(C)c(-c3nc(S(C)(=O)=O)nc4c3CNC(=O)N4c3c(F)cccc3F)c2)cc1F` stands above 270 °C; under `Nc1nc(N)c2ncn(CCC(CO)CO)c2n1`, 187 to 190 °C; under `COc1ccc(S(=O)(=O)N2C(=O)C(OC(=O)N3CCN(c4ccncc4)CC3)(c3ccccc3OC(C)C)c3cc(Cl)ccc32)c(OC)c1` (stereo not given), 160 to 164 °C.
Under `O=C(NS(=O)(=O)N1CCCCC1)C1=NN(c2ccc(Cl)cc2)C(c2ccccc2)C1` (stereo not given) stands 176 to 179 °C; under `CCOc1ccc2c(c1)n(-c1ccccn1)c(=O)n2S(=O)(=O)c1ccc(NC(=O)N(CC)CC)cc1OC`, 171 °C.
The compound `CSc1nn2c(N(C)C)cc(C)nc2c1S(=O)(=O)c1ccc2ccccc2c1` registered a melting point above 230 °C.
In the case of `CC1CCOCC1C(C#N)=NO` (stereo not given) it was 94 to 96 °C; in that of `Cc1cn(COCCI)c(=O)[nH]c1=O`, 112 to 115 °C; in that of `CC(C)(C)c1cc(SCc2ccc(C(=O)O)cc2)cc(C(C)(C)C)c1O`, 171 °C.
`O=C(NC1N=C(c2ccccc2F)c2ccccc2NC1=S)c1ccc(Cl)cc1` (stereo not given) displayed a melting point of 156 to 158 °C.
Under `O=C(Cc1ccc(Cl)cc1)N1CCC2(CC1)Cc1ccccc1O2` stands 108 to 110 °C; under `CSc1nc(Cl)c(C(Cl)Cl)c(Cl)n1`, 66 °C.
`COc1ncnc2nc(-c3ccccc3)cnc12`: the melting point fell in the range of 205 to 207 °C.
In the case of `N#Cc1cc([N+](=O)[O-])ccc1N1CCOCC1` it was 138 to 140 °C; in that of `CCS(=O)(=O)C(=CNc1ccc(NC=C(S(=O)(=O)CC)S(=O)(=O)CC)cc1)S(=O)(=O)CC`, 265 to 268 °C.
In the case of `N#Cc1cc(Br)c2c(c1)N(C1CC1)CNS2(=O)=O` it was 250 to 253 °C; in that of `Cn1cncc1C(c1ccc(Cl)cc1)c1ccc2c(c1)C(c1cccc(Cl)c1)SCc1nnnn1-2` (stereo not given), 162 °C.
As to `O=C(CC1=NCCN1)N1CCOc2ccc(S(=O)(=O)c3ccccc3)cc21`, the melting point lay within 114 to 116 °C.
On to `CCCc1c(OCCCOc2ccc(C(=O)NCCCCc3cccnc3)cc2)ccc(C(C)=O)c1O`, for which the melting point is 133 to 134 °C.
In the case of `CC1(C)C=C(c2cc(C#N)ccc2O)c2cc(C#N)ccc2O1` it was 213 to 215 °C; in that of `COc1cc(OC)c2c(c1)S(=O)(=O)NC2=O`, 258 °C.
The compound `CN1C(=O)CC[C@]2(C)c3ccc(-c4ccc(S(C)(=O)=O)cc4)cc3CC[C@@H]12` yielded a melting point of 229 °C.
As for `CCOCc1cc(N2C(=O)C3=C(CCCC3)C2=O)c(F)cc1Cl`, the melting point fell in the range of 89 to 91 °C.
For the compound `COc1cc(C2C3=C(COC3=O)N(Cc3ccc([N+](=O)[O-])cc3)c3cc4c(cc32)OCO4)cc(OC)c1OC` (stereo not given), the melting point amounted to 240 °C.
In the case of `CCOC(N)=C(C#N)C#N` it was 233 °C.
